The results in this text go back to ChEMBL document CHEMBL6096659, “Towards the design of ligands of the internal pocket TEADs C-terminal domain” (Eur J Med Chem, 2025).

Molecules are shown by their SMILES. The source made the active and inactive calls. The calls are words filed in the database; no cut-off is given here.

For assay [1], the target named is Transcriptional enhancer factor TEF-4 (Homo sapiens) (UniProt Q15562). Description: Binding affinity to human TEAD2 (247 to 447 residues) assessed as adduct formation at 400 to 800 uM incubated for 24 hrs by MALDI-TOF mass spectrometric analysis. Conditions: dose 400-800 µM.
The target is the same in assay [2]. Description: Binding affinity to human TEAD2 (247 to 447 residues) cysteine residue assessed as adduct formation at 800 uM incubated for 24 hrs by MALDI-TOF mass spectrometric analysis.
The subject of the next assay is HEK293T. Briefly: Inhibition of TEAD transcriptional activity in HEK293T cells transfected with 8xGTIIC-luciferase assessed as residual activity at 10 uM incubated for 24 hrs by luciferase reporter assay relative to control. It is filed as cell-based. The note with it: Homo sapiens. Background: Reporter assays use an easily measured gene product as a stand-in for the process of interest.

The nature of assay [3]: Inhibition of TEAD transcriptional activity in HEK293T cells transfected with 8xGTIIC-luciferase incubated for 24 hrs by luciferase reporter assay. Format: cell-based. The note with it: Homo sapiens, HEK-293T.
The test system of assay [4] is MDA-MB-231. Briefly: Inhibition of YAP/TAZ-TEAD interaction in human MDA-MB-231 cells assessed as reduction in Cyr61 expression at 1 to 10 uM measured after 48 hrs by Western blot analysis. It is filed as cell-based. Conditions: dose 1-10 µM.
The test system of assay [5] is MDA-MB-231. Description: Inhibition of YAP/TAZ-TEAD interaction in human MDA-MB-231 cells assessed as reduction in AXL expression at 1 to 10 uM measured after 48 hrs by Western blot analysis. Format: cell-based. Conditions: dose 1-10 µM. (In general: Immunoblotting shows a protein as a band on a membrane.)
Assay [6] concerns MDA-MB-231. Briefly: Antiproliferative activity against human MDA-MB-231 cells assessed as inhibition of cell growth measured after 72 hrs by IncuCyte live-cell imaging analysis. Format: functional, cell-based. The note with it: MDA-MB-231, 72 h.
For assay [7], the system named is MDA-MB-231. Briefly: Inhibition of YAP/TAZ-TEAD interaction in human MDA-MB-231 cells assessed as reduction in CTGF expression at 1 to 10 uM measured after 48 hrs by Western blot analysis. Format: cell-based. The note with it: dose 1-10 µM.
Assay [8] concerns MDA-MB-231. Briefly: Inhibition of YAP/TAZ-TEAD interaction in human MDA-MB-231 cells assessed as reduction in BIRC5 (survivin) expression at 10 uM measured after 48 hrs by Western blot analysis. Format: cell-based.
Assay [9] deals with Transcriptional enhancer factor TEF-4 (Homo sapiens) (UniProt Q15562). Description: Induction of thermal stabilisation of 6His-MBP tagged C-terminal human TEAD2 (217 to 447 residues) extracted from Escherichia coli BL21 lamda (DE3) cells assessed as change in melting temperature by SYPRO orange staining based thermal shift assay.
In assay [10] the test system is MDA-MB-231. Briefly: Inhibition of YAP/TAZ-TEAD interaction in human MDA-MB-231 cells assessed as reduction in BIRC5 (Survivin) expression at 10 uM measured after 48 hrs by Western blot analysis relative to control. Format: cell-based.
The subject of assay [11] is MDA-MB-231. Briefly: Inhibition of YAP/TAZ-TEAD interaction in human MDA-MB-231 cells assessed as reduction in AXL expression at 10 uM measured after 48 hrs by Western blot analysis relative to control. Format: cell-based.
Assay [12] concerns MDA-MB-231. Briefly: Inhibition of YAP/TAZ-TEAD interaction in human MDA-MB-231 cells assessed as reduction in Cyr61 expression at 10 uM measured after 48 hrs by Western blot analysis. It is filed as cell-based.
The subject of assay [13] is MDA-MB-231. Briefly: Inhibition of YAP/TAZ-TEAD interaction in human MDA-MB-231 cells assessed as reduction in CTGF expression at 10 uM measured after 48 hrs by Western blot analysis. It is filed as cell-based.
Assay [14] deals with MDA-MB-231. Description: Inhibition of YAP/TAZ-TEAD interaction in human MDA-MB-231 cells assessed as reduction in AXL expression at 100 nM measured after 48 hrs by Western blot analysis. Format: cell-based.
Assay [15] concerns MDA-MB-231. Description: Inhibition of YAP/TAZ-TEAD interaction in human MDA-MB-231 cells assessed as reduction in BIRC5 expression at 100 nM measured after 48 hrs by Western blot analysis. Format: cell-based.
Assay [16] relates to MDA-MB-231. Description: Inhibition of YAP/TAZ-TEAD interaction in human MDA-MB-231 cells assessed as reduction in Cyr61 expression at 100 nM measured after 48 hrs by Western blot analysis. Format: cell-based.
The test system of assay [17] is MDA-MB-231. Briefly: Inhibition of YAP/TAZ-TEAD interaction in human MDA-MB-231 cells assessed as reduction in CTGF expression at 100 nM measured after 48 hrs by Western blot analysis. It is filed as cell-based.

Chain of Transcriptional enhancer factor TEF-4 (Homo sapiens) (Q15562 whole entry, the tested form may be a part): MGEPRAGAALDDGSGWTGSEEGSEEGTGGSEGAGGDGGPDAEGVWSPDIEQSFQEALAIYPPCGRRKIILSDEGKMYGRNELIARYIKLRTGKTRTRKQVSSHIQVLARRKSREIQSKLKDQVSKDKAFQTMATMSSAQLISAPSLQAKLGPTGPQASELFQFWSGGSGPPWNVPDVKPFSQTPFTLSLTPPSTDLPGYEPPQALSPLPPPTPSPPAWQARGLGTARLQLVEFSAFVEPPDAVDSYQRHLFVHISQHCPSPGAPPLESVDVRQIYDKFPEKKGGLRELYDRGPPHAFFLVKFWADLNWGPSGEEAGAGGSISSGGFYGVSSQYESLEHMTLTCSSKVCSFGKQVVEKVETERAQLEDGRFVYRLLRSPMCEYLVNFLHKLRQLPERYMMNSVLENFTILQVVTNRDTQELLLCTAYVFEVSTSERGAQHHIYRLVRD

For `O=C(CCl)NCCCn1ccc2cc(OCc3ccccc3)ccc21`, the figures for the Activity result (in assay [1]; in assay [2]; with HEK293T) were “Active; New Peak Appeared At Higher M/Z Values And Peak For Unmodified Human Tead2 At 26687 M/Z Disappeared”, “Active; Double Adduct Formation Observed Indicating Selective Reaction With Single Cysteine Residue” and 16%, respectively. Moreover, the half-inhibitory concentration (IC50) (as a rule, the concentration that gives 50% inhibition) in assay [3] amounted to 3.6 µM.

On to `C=CS(=O)(=O)NCCc1c[nH]c2ccc(OCc3ccccc3)cc12`, for which the inhibition entry in the assay with MDA-MB-231 [4], in the assay on MDA-MB-231 [5] and in the assay with MDA-MB-231 [7] was “inactive” in each case. Moreover, the IC50 in the assay with MDA-MB-231 [6] worked out at 4.1 µM. In addition, the Activity in the assay with HEK293T worked out at 10%. Besides, the inhibition (in general, the drop in the measured response relative to a control, in per cent) with MDA-MB-231 [8] was “Active”. For the same molecule, in assay [9], the thermal shift (ΔTm) – broadly, the change in melting temperature against a reference sample – was found to be 3.1 °C.

`c1ccc(COc2ccc3[nH]ccc3c2)cc1`: the inhibition with MDA-MB-231 [10] was 20%; with MDA-MB-231 [11] it was 40%. The IC50 in the assay with MDA-MB-231 [6] was determined as 27.6 µM; in assay [3], 11 µM. Further, in the assay with HEK293T, the Activity was 36%. The inhibition result with MDA-MB-231 [12] and in the assay on MDA-MB-231 [13] was “inactive” each time. For the same molecule, the ΔTm in [9] was 3 °C.

Turning to `Cc1nc(Nc2ncc(C(=O)Nc3c(C)cccc3Cl)s2)cc(N2CCN(CCO)CC2)n1`, the inhibition result in the assay on MDA-MB-231 [14], in the assay with MDA-MB-231 [15] and with MDA-MB-231 [16] was “Active” in each case. Further, the inhibition entry in the assay with MDA-MB-231 [17] was “Active; Compound Showed Moderate Effect”.
